From BindingDB's records for doi:10.1021/ml2001196 (2011)

What was measured:
[1] = Antagonist activity at CRTH2 receptor in human whole blood assessed as inhibition of PGD2-induced eosinophil chemotaxis
[2] = Antagonist activity at CRTH2 receptor in human whole blood assessed as inhibition of PGD2-induced eosinophil shape change pretreated for 20 mins measured after 1 hr by flow cytometric analysis

IC50 [1]	IC50 [2]	SMILES
47 nM	–	CN1C(=O)N(Cc2cc(Cl)ccc2F)C(=O)[C@]12C(=O)N(CC(=O)O)c1ccc(Cl)cc12
62 nM	1800 nM	O=C(O)CN1C(=O)[C@@]2(CC(=O)N(Cc3cc(Cl)ccc3F)C2)c2cc(Cl)ccc21 [2-[(3S)-5-chloro-1'-[(5-chloro-2-fluorophenyl)methyl]-1,2-dihydrospiro[indole-3,3'-pyrrolidine]-2,5'-dione]acetic acid]
–	3940 nM	CN1C(=O)N(Cc2csc(-c3ccccc3)n2)C(=O)C12C(=O)N(CC(=O)O)c1ccc(Cl)cc12 (stereo unspecified)
7.4 nM	69 nM	O=C(O)CN1C(=O)[C@@]2(NC(=O)N(Cc3cc(Cl)ccc3F)C2=O)c2cc(Cl)ccc21
